Source: patent publication US11214540B2, “Compositions for treating neurodegenerative diseases” (COGNITION THERAPEUTICS, INC., priority 2017, dated 2022)

Assay: log P
Type: physicochemical
From the text: The term “log P” refers to the partition coefficient of a compound. The partition coefficient is the ratio of concentrations of un-ionized compound in each of two solution phases, for example, octanol and water. To measure the partition coefficient of ionizable solute compounds, the pH of the aqueous phase is adjusted such that the predominant form of the compound is un-ionized. The logarithm of the ratio of concentrations of the un-ionized solute compound in the solvents is called log P. The log P is a measure of lipophilicity. For example, log Poct/wat=log([solute]octanol/[solute]un-ionized,water).
Combined Results for particular compounds described herein, with respect to log P, membrane trafficking (uM), sigma-2 receptor affinity, sigma-1 receptor affinity microsomal stability in mouse liver microsomes (MLM) (t1/2, min), t1/2 normalized to CT)10914 and in vitro toxicity potassium channel hERG (IC50, nM) are provided in Table 1: […]

SMILES | log P
CC(C)=CC(CC(C)(C)c1ccc(S(C)(=O)=O)cc1)NCC1CCOCC1 (stereo not shown) [Compound 88] | 3.54
CC(C)=CC(CC(C)(C)c1ccc(S(C)(=O)=O)cc1)N1CCC(C(C)C)CC1 (stereo not shown) [Compound 89] | 5.37
COc1ccc(C(C)(C)CC(c2ccccc2)N2CCCCC2)cc1 (stereo not shown) [Compound 116] | 5.71
CC(C)(CC(c1ccccc1)N1CCCCC1)c1ccc(Cl)cc1 (stereo not shown) [Compound 117] | 6.47
COc1ccc(C(C)(C)CC(c2ccccc2)N2CCOCC2)cc1 (stereo not shown) [Compound 118] | 4.64
CC(C)(CC(c1ccccc1)N1CCC(C2CCOCC2)CC1)c1ccc(Cl)cc1 (stereo not shown) [Compound 119] | 6.67
CC(C)(CC(c1ccccc1)N1CCOCC1)c1ccc(Cl)cc1 (stereo not shown) [Compound 120] | 5.4
CC(C)(CC(NCC1CCOCC1)c1ccccc1)c1ccc(Cl)cc1 (stereo not shown) [Compound 121] | 5.66
COc1ccc(C(C)(C)CC(c2ccccc2)N2CCC(C3CCOCC3)CC2)cc1 (stereo not shown) [Compound 122] | 5.91
CC(C)=CC(CC(C)(C)c1ccc(N2CCOCC2)cc1)N1CCC2(CCOCC2)CC1 (stereo not shown) [Compound 147] | 5.16
CC(C)=CC(CC(C)(C)c1ccc(N2CCOCC2)cc1)N1CCC(C)(O)CC1 (stereo not shown) [Compound 148] | 4.14
CC(C)=CC(CC(C)(C)c1ccc(C(F)(F)F)cc1)N1CCC(CCOC(C)C)CC1 (stereo not shown) [Compound 164] | 7.1
CC(C)=CC(NCC1CCOCC1)C(C)(C)Oc1ccc(Cl)cc1 (stereo not shown) [Compound 165] | 4.6
CC(C)=CC(NCC1CCOCC1)C(C)(C)Oc1ccccc1 (stereo not shown) [Compound 166] | 3.99
COCCCC1CCN(C(C=C(C)C)CC(C)(C)c2ccc(OC(C)C)cc2)CC1 (stereo not shown) [Compound 171] | 6.5
COCCNC(C=C(C)C)C(C)(C)Oc1ccccc1 (stereo not shown) [Compound 172] | 3.52
CC(C)=CC(NCC(C)C)C(C)(C)Oc1ccccc1 (stereo not shown) [Compound 173] | 4.81
COCCNC(C=C(C)C)C(C)(C)Oc1ccc(F)cc1 (stereo not shown) [Compound 174] | 3.67
COCCNC(C=C(C)C)C(C)(C)Oc1ccc(Cl)cc1 (stereo not shown) [Compound 175] | 4.13

SMILES | log P
CC(C)=CC(NCC(C)C)C(C)(C)Oc1ccc(F)cc1 (stereo not shown) [Compound 176] | 4.96
CC(C)=CC(NCC(C)C)C(C)(C)Oc1ccc(Cl)cc1 (stereo not shown) [Compound 177] | 5.42
COCCCC1CCN(C(C=C(C)C)COc2ccc(F)cc2)CC1 (stereo not shown) [Compound 190] | 4.63
CC(C)(CCN1CCC(C2CCOCC2)CC1)c1ccc(Cl)cc1 [Compound 193] | 4.89
COC1CCN(C(C=C(C)C)CC(C)(C)c2ccccc2)CC1 (stereo not shown) [Compound 202] | 4.62
CC(C)=CC(CC(C)(C)c1ccccc1)N1CCC(C2CCOCC2)CC1 (stereo not shown) [Compound 204] | 5.7
CC(C)=CC(CC(C)(C)c1ccc(C(F)(F)F)cc1)N1CCNC(=O)C1 (stereo not shown) [Compound 206] | 4.26
CC(C)=CC(CC(C)(C)c1ccc(Cl)cc1)N1CCC(O)(c2ccccc2)CC1 (stereo not shown) [Compound 211] | 6.23
CC(C)=CC(CC(C)(C)c1ccc(F)cc1)N1CCC(C)(OC(=O)NC(C)C)CC1 (stereo not shown) [Compound 215] | 5.5
CCCCC1(OC(=O)NC(C)C)CCN(C(C=C(C)C)CC(C)(C)c2ccc(C(F)(F)F)cc2)CC1 (stereo not shown) [Compound 216] | 7.65
COCCC1(O)CCN(C(C=C(C)C)CC(C)(C)c2ccccc2)CC1 (stereo not shown) [Compound 219] | 3.91
CC(C)=CC(CC(C)(C)c1ccccc1)N1CCC(O)(c2ccccc2)CC1 (stereo not shown) [Compound 220] | 5.62
CC(C)=CC(CC(C)(C)c1ccc(F)cc1)N1CCC(O)(c2ccccc2)CC1 (stereo not shown) [Compound 221] | 5.76
CCCCC1(O)CCN(C(C=C(C)C)CC(C)(C)c2ccc(F)cc2)CC1 (stereo not shown) [Compound 222] | 5.81
CCCCC1(O)CCN(C(C=C(C)C)CC(C)(C)c2ccccc2)CC1 (stereo not shown) [Compound 223] | 5.67
CC(C)=CC(CC(C)(C)c1ccccc1)N1CCNC(=O)C1 (stereo not shown) [Compound 227] | 3.38
CC(C)=CC(CC(C)(C)c1ccc(C(F)(F)F)cc1)N1CCC(C)(OC(=O)NC(C)C)CC1 (stereo not shown) [Compound 228] | 6.24
CC(C)=C[C@@H](CC(C)(C)c1ccc(F)cc1)N1CCC[C@@H]1CO [Compound 241] | 4.57
CC(C)=C[C@H](CC(C)(C)c1ccc(C(F)(F)F)cc1)N1CCC[C@@H]1CO [Compound 243] | 5.31

Continued, values first:

log P | SMILES
3.37 | CC(C)=CC(CC(C)(C)c1ccc(F)cc1)N1CCN(S(C)(=O)=O)CC1 (stereo not shown) [Compound 154]
6.46 | CC(C)=CC(CC(C)(C)c1ccc(C(F)(F)F)cc1)N1CCN(C(=O)c2ccccc2)CC1 (stereo not shown) [Compound 155]
6.19 | CC(C)=CC(CC(C)(C)c1ccc(Cl)cc1)N1CCN(C(=O)c2ccccc2)CC1 (stereo not shown) [Compound 157]
5.1 | COC1CN(C(C=C(C)C)CC(C)(C)c2ccc(Cl)cc2)C1 (stereo not shown) [Compound 167]
6.17 | CC(C)=CC(CC(C)(C)c1ccc(OC(C)(C)C)cc1)N1CCC2(CCOCC2)CC1 (stereo not shown) [Compound 168]
5.15 | CC(C)=CC(CC(C)(C)c1ccc(OC(C)(C)C)cc1)N1CCC(C)(O)CC1 (stereo not shown) [Compound 169]
4.87 | CC(C)=CC(CC(C)(C)c1ccc(OC(C)(C)C)cc1)N1CCC(O)CC1 (stereo not shown) [Compound 170]
4.59 | CC(C)=CC(CC(C)(C)c1ccc(OC(C)C)cc1)N1CCC(O)CC1 (stereo not shown) [Compound 178]
6.01 | CC(C)=CC(CC(C)(C)c1ccc(Cl)cc1)N1CCN(C(=O)OC(C)(C)C)CC1 (stereo not shown) [Compound 194]
3.36 | CC(C)=CC(CC(C)(C)c1ccc(F)cc1)N1CCN(S(=O)(=O)N(C)C)CC1 (stereo not shown) [Compound 195]
4.85 | CCOC(=O)N1CCN(C(C=C(C)C)CC(C)(C)c2ccc(F)cc2)CC1 (stereo not shown) [Compound 196]
4.95 | COC(=O)N1CCN(C(C=C(C)C)CC(C)(C)c2ccc(Cl)cc2)CC1 (stereo not shown) [Compound 197]
3.75 | CC(C)=CC(CC(C)(C)c1ccc(F)cc1)N1CCN(C)C(=O)C1 (stereo not shown) [Compound 203]
4.09 | CC(C)=CC(CC(C)(C)c1ccc(C(F)(F)F)cc1)N1CCN(S(=O)(=O)N(C)C)CC1 (stereo not shown) [Compound 207]
5.58 | CCOC(=O)N1CCN(C(C=C(C)C)CC(C)(C)c2ccc(C(F)(F)F)cc2)CC1 (stereo not shown) [Compound 208]
6.47 | CC(C)=CC(CC(C)(C)c1ccc(C(F)(F)F)cc1)N1CCN(C(=O)OCC(C)C)CC1 (stereo not shown) [Compound 209]
6.27 | CCCCC1(O)CCN(C(C=C(C)C)CC(C)(C)c2ccc(Cl)cc2)CC1 (stereo not shown) [Compound 214]
3.98 | CC(C)=CC(CC(C)(C)c1ccc(Cl)cc1)N1CCNC(=O)C1 (stereo not shown) [Compound 224]
7.37 | CCCCC1(OC(=O)NC(C)C)CCN(C(C=C(C)C)CC(C)(C)c2ccc(Cl)cc2)CC1 (stereo not shown) [Compound 225]
5.68 | COCC1CCCN1C(C=C(C)C)CC(C)(C)c1ccc(Cl)cc1 (stereo not shown) [Compound 234]
5.68 | COC[C@H]1CCCN1[C@H](C=C(C)C)CC(C)(C)c1ccc(Cl)cc1 [Compound 235]
5.04 | CC(C)=CC(CC(C)(C)c1ccc(Cl)cc1)N1CCC[C@H]1CO (stereo partly shown) [Compound 237]
5.04 | CC(C)=C[C@H](CC(C)(C)c1ccc(Cl)cc1)N1CCC[C@@H]1CO [Compound 240]
